Results published in patent US4372948A, “Derivative of saccharide and physiologically active agent containing the same” (Kureha Kagaku Kogyo Kabushiki Kaisha, priority 1980, dated 1983).

Legend:
[1] = tested on: beta-lipoprotein; test: Anti-hyperlipemia activity, beta-lipoprotein in blood; format: in vivo, rabbit (Japanese white male); details: oral, 300 mg/kg once
Protocol: (§1) Japanese white male rabbits were fed for 3 months with a solid diet containing 1% of cholesterol taken ad lib, and after confirming the raised lipid content of the serum of the rabbits, they were utilized as model animals suffering from experimental arteriosclerosis. Each of the present compounds was administered orally as a solution or dispersion in distilled water to the experimental animals of each group at a dose rate of 300 mg/kg once, and blood samples were taken at a predetermined time interval from the auricular vein of each animal. The content of cholesterol in the blood specimen was traced as the time passed by, with an enzymatic method, and the content of beta-lipoprotein in the same blood specimen was traced with a colorimetry. Each value in Table 7 is the difference between the level just before administration and the level after 3 or 6 hours of the administration.

[2] = tested on: exudation; test: Anti-exudation activity (air pouch, croton oil); format: in vivo, rat; details: Rattus norvegicus, po, 144 h, 5 days, read-out: I.R. against exudation
Protocol: Following the method of Baris et al. (1965), air was injected subcutaneously into the back of groups of rats, each group consisting of 6 animals to make an air pouch, and 0.5 ml of sesame oil containing 1% by weight of croton oil was injected into the air pouch. Each of the present compounds was orally administered forcibly to each of the groups of rats as a solution or dispersion in distilled water at a dose rate of 1000 mg/kg/day for continued five days. The amount of liquid exudated into the air pouch was measured on 6th day of the operation. The rate of inhibiting the exudation of the liquid was obtained by the same manner as in (5-2) and the results are shown also in Table 8.

[3] = tested on: total cholesterol; test: Anti-hyperlipemia activity, total cholesterol in blood; format: in vivo, rabbit (Japanese white male); details: oral, 300 mg/kg once; for Reduction of cholesterol level after 3 hrs.: negative = raising
Protocol: as §1

[4] = tested on: cotton pellet granuloma; test: Anti-granuloma activity (cotton pellet); format: in vivo, rat; details: Rattus norvegicus, po, 192 h, 7 days, read-out: I.R. against cotton pellet edema
Protocol: Following the method of Winter et al. (1963), each two cotton wool pellets, each weighing 30±1 mg, were implanted into the back of each rats of groups of rats, each group consisting of 6 animals, at the positions of mutually symmetrical concerning the median line of the rat. To these groups of the thus operated rats, the present compounds were respectively administered orally and forcibly as a solution or dispersion in distilled water for 7 continuous days, once a day at a dose of 1000 mg/kg/day. On 8th day of the implantation, the granuloma was extirpated and the dry weight of the granuloma was measured, the rate of inhibiting the proliferation of granuloma being obtained as in (5-1) being shown in Table 8.

[5] = tested on: level of blood sugar; test: Anti-hyperglycemia activity (reduction of blood sugar level); format: in vivo, rat (Wistar, streptozotocin); details: oral, 300 mg/kg
Protocol: A group of Wistar rats to which at first streptozotocin was interperitoneally administered at a rate of 60 mg/kg and of which the positivity of glycosuria was confirmed after a week of the administration and to which regular insulin was further administered and of which the reduction of levels of glucose in urine and blood was once confirmed, however, of which hyperglycemia and hyperglycosuria were again confirmed after a few days was chosen and used as model animals of glycosuria in the following test. After orally administering each of the present compounds to the model animals at a dose of 300 mg/kg body weight, as a solution or dispersion in distilled water, the blood was collected two times, respectively after 3 and 6 hours of the administration.

[6] = tested on: pseudo-escaping reaction to tail pressure; test: Analgetic activity against mechanical stimulation of pressure; format: in vivo, mouse (ICR female); details: oral, 1000 mg/kg
[7] = tested on: pyrexia (Saccharomyces cerevisiae); test: Anti-pyrexia activity (yeast-induced); format: in vivo; details: Rattus norvegicus, oral, read-out: Rate of inhibiting pyrexia (I.R.)
Protocol: Following the method of Winter et al. (1961), an aqueous dispersion of 20% by weight of Saccharomyces cerevisiae was subcutaneously injected into groups of rats, each group consisting of 6 animals, and after 10-hour fasting, 1000 mg/kg of each of the present compounds was orally administered to the rat as a solution of dispersion in distilled water, and then the rectal temperature of the rat was measured at a predetermined interval of time to find the lowest temperature.
The anti-pyrexia activity of each compound was obtained from the following formula: […]
Anti-pyrexia activity represented by the rate of inhibition (I.R.)
C2 represents the average rectal temperature of negative control (non-treatment), not injected with the yeast and not administered with the present compound,
C1 represents the average temperature of positive control, injected with the yeast and not administered with the compound and T represents the temperature of tested animals, injected with the yeast and administered with the present compound.

[8] = tested on: carrageenin edema; test: Anti-Carrageenin edema activity; format: in vivo, rat; details: Rattus norvegicus, po, 1000 mg/kg once, read-out: I.R. against carrageenin edema
Protocol: After orally administering each of the present compounds forcibly to each group of rats, composed of 10 animals, as a solution or dispersion in distilled water at a dose of 1000 mg/kg once, 0.1 ml of an aqueous dispersion of 1% carrageenin in aqueous physiological saline solution was injected into the foot pad of the right hind leg of the administered animal following Van Arman et al. (1963). Thereafter, the thickness of the foot pad was measured at a time interval to find the rate of inhibiting of the swelling of the foot pad according to the following formula:
(§2) Rate of inhibition (I.R.) (%)=(1-T/C)×100
T means the average volume of the foot pad of the animals administered with one of the present compounds and carrageenin, and
C means that of the animal not administered with the present compound, however, administered with carrageenin.

[9] = tested on: acetic acid writhing; test: Analgetic activity against chemical stimulation of acetic acid (writhing); format: in vivo, mouse (ICR female); details: Mus musculus, po, 30 min before 0.6% acetic acid, read-out: I.R. of writhing
From the text: as §2
T represents the average number of writhing of the group of mice administered with the present compound and injected with acetic acid, and C represents the average number of writhing of the group of mice only injected with acetic acid (control).

[10] = in vivo; details: mouse, in vivo, po, mice, 7 days observation, read-out: LD50, acute oral toxicity
[11] = tested on: Sarcoma-180; test: Anti-tumour activity against Sarcoma-180; format: in vivo, mouse (ICR-JCL); details: Mus musculus, Sarcoma-180, po, 600 h, 10 times every other day, tumour weight on 25th day, read-out: Antitumour activity, inhibiting rate (I.R.)
Protocol: Sarcoma-180 was transplanted into the axillary part of ICR-JCL mice at a rate of 1×10^6 cells/animal, and after 24 hours of transplantation, each of the present compounds as a solution or dispersion in sterilized physiological saline solution was orally administered to each of the transplanted mice 10 times every other day at a dose of 500 mg/kg/time. On 25th day of the transplantation, tumour node(s) were extirpated from all the mice to determine the weight of the tumour nodes.
Antitumour activity (activity of inhibiting the proliferation of the transplanted sarcoma) of each of the present compounds was derived by the following formula and shown in Table 6:
Antitumour activity (Inhibiting rate, I.R.)=(1-T/C)×100(%).
T represents the total weight of tumour nodes of the group of mice transplanted and administered with the present compound, and
C represents the total weight of tumour nodes of the group of mice transplanted, however, not administered with any agents.

[12] = tested on: blood pressure; test: Anti-hypertension activity (reduction of blood pressure); format: in vivo, rat (spontaneous hypertension); details: oral, 300 mg/kg
Protocol: Rats of spontaneous hypertension were orally administered with each of the present compounds as a solution or dispersion in distilled water at a dose rate of 300 mg/kg body weight. After 3 and 6 hours of the administration, the blood pressure of each rat was determined, and the difference between the above-determined value and the value just before the administeration was used as the index of the activity of reducing the blood pressure of the compound.

Compound	Reduction of beta-lipoprotein level after 3 hrs. [1]	Reduction of beta-lipoprotein level after 6 hrs. [1]	inhibition in vivo at 1000 mg/kg/day [2]	Reduction of cholesterol level after 3 hrs. [3]	Reduction of cholesterol level after 6 hrs. [3]	inhibition in vivo at 1000 mg/kg/day [4]	Reduced level of blood sugar after 3 hrs. [5]	Reduced level of blood sugar after 6 hrs. [5]	Pseudo-escapting reaction pressure [6]	Pseudo-escapting reaction time [6]	inhibition in vivo at 1000 mg/kg [7]	inhibition in vivo at 1000 mg/kg [8]	inhibition in vivo at 1000 mg/kg [9]	LD50 at 168 h [10]	inhibition in vivo at 500 mg/kg [11]	Reduced level of blood pressure after 3 hrs. [12]	Reduced level of blood pressure after 6 hrs. [12]
C[C@@H]1OC(Nc2ccc(C(=O)OCC3CCCCC3)cc2)[C@H](O)[C@H](O)[C@H]1O (stereo partly drawn) [Compound 25, hexahydrobenzyl p-aminobenzoate-N-L-rhamnoside]	95 mg/dL	106 mg/dL	22.3%	-3 mg/dL	44 mg/dL	6.5%	88 mg/dL	127 mg/dL	93 mmHg	44 s	54%	18.1%	50%	9400 mg/kg	50%	16 mm Hg	18 mm Hg
NC(=O)c1ccccc1NC1(CO)OC[C@@H](O)[C@@H](O)[C@@H]1O (stereo partly drawn) [Compound 1, o-Aminobenzoic acid amide-N-D-fructoside]	120 mg/dL	131 mg/dL	17.5%	-2 mg/dL	36 mg/dL	6.6%	68 mg/dL	92 mg/dL	78 mmHg	38 s	41%	15.6%	17%	11800 mg/kg	42%	16 mm Hg	19 mm Hg
O=C(OCc1ccccc1)c1cccc(NC2O[C@H](CO)[C@@H](O[C@@H]3O[C@H](CO)[C@H](O)[C@H](O)[C@H]3O)[C@H](O)[C@H]2O)c1 (stereo partly shown) [Compound 12, benzyl m-aminobenzoate-N-lactoside]	121 mg/dL	124 mg/dL	10.7%	7 mg/dL	48 mg/dL	8.4%	52 mg/dL	95 mg/dL	90 mmHg	42 s	17%	18.7%	33%	11500 mg/kg	37%	16 mm Hg	18 mm Hg
O=C(OCC1CCCCC1)c1ccc(NC2O[C@H](CO)[C@@H](O)[C@H](O)[C@H]2O)cc1 (stereo partly drawn) [Compound 24, hexahydrobenzyl p-aminobenzoate-N-D-glucoside]	95 mg/dL	111 mg/dL	8.7%	2 mg/dL	32 mg/dL	16.9%	101 mg/dL	145 mg/dL	85 mmHg	42 s	48%	10.6%	41%	12100 mg/kg	40%	19 mm Hg	21 mm Hg
NC(=O)c1ccc(NC2OC[C@@H](O)[C@H](O)[C@H]2O)cc1 (stereo partly drawn) [Compound 3, p-aminobenzoic acid amide-N-D-xyloside]	115 mg/dL	119 mg/dL	19.1%	3 mg/dL	45 mg/dL	7%	101 mg/dL	115 mg/dL	93 mmHg	44 s	20%	26.5%	22%	> 15000 mg/kg	47%	20 mm Hg	24 mm Hg
